Results taken from EPA's ToxRefDB 2.

Assays:
rat [1] = conditions: Sub-acute repeat dose toxicity, fischer, Oral, Gavage/Intubation, dose end: 16 day, group: systemic
rat [2] = conditions: Combined chronic toxicity/carcinogenicity, fischer, Oral, Gavage/Intubation, dose end: 103 week, group: systemic
rabbit = conditions: Sub-acute dermal toxicity, new zealand white, Topical, dose end: 21 day, group: systemic, systemic / pathology gross / skin / scabbing + systemic / pathology microscopic / skin / acanthosis + systemic / pathology microscopic / …
rat [3] = conditions: Prenatal developmental toxicity study, sprague dawley, Oral, Gavage/Intubation, dose end: 15 GD
rat [4] = conditions: Prenatal developmental toxicity study, wistar, Oral, Gavage/Intubation, dose end: 15 GD
mouse [5] = conditions: Carcinogenicity; b6c3f1; Oral; Gavage; dose end: 103 week; group: systemic; systemic / organ weight / kidney / absolute + systemic / pathology microscopic / kidney / nephropathy + systemic / pathology microscopic / …
mouse [6] = conditions: Sub-acute repeat dose toxicity, b6c3f1, Oral, Gavage/Intubation, dose end: 16 day, group: systemic
rat [7] = conditions: Subchronic oral toxicity in rodents, fischer, Gavage/Intubation, dose end: 13 week, group: systemic
rat [8] = conditions: Subchronic oral toxicity in rodents, fischer, Gavage/Intubation, dose end: 13 week, group: systemic; remark: listed apart in the source
rat [9] = conditions: Prenatal developmental toxicity study; sprague dawley; Oral; Gavage/Intubation; dose end: 20 GD; group: maternal; systemic / in life observation / body weight / body weight gain
mouse [10] = conditions: Carcinogenicity; b6c3f1; Oral; Feed; dose end: 80 week; group: systemic; systemic / in life observation / clinical signs / aggressive behavior + systemic / in life observation / clinical signs / alopecia + …
rat [11] = conditions: Carcinogenicity; Osborne-Mendel; Oral; Feed; dose end: 80 week; group: systemic; systemic / in life observation / clinical signs / [other] + systemic / in life observation / clinical signs / alopecia + systemic / in life …
mouse [12] = conditions: Prenatal developmental toxicity study, cd1, Oral, Gavage/Intubation, dose end: 17 GD
hamster = conditions: Developmental neurotoxicity study; golden syrian; Oral; Gavage/Intubation; dose end: 125 PND; group: cannot be grouped; systemic / in life observation / mortality / mortality
mouse [13] = conditions: Multigenerational reproductive toxicity study, other, Oral, Feed, dose end: 1 generation
[14] = systemic / organ weight / kidney / absolute + systemic / organ weight / kidney / relative to body weight + systemic / pathology microscopic…
[15] = systemic / pathology gross / intestine large / dilatation
[16] = systemic / pathology microscopic / kidney / nephropathy + systemic / urinalysis / coporphoryin / coporphoryin
[17] = group: developmental, developmental / developmental malformation / general / runts + systemic / in life observation / body weight / fetal weight
[18] = group: maternal, systemic / in life observation / body weight / body weight + systemic / in life observation / body weight / body weight gain + systemic / in…
[19] = group: developmental, systemic / in life observation / body weight / fetal weight
[20] = group: maternal, systemic / in life observation / body weight / body weight gain
[21] = group: maternal, systemic / in life observation / body weight / body weight gain + systemic / in life observation / clinical signs / mucoid stools + systemic…
[22] = systemic / in life observation / clinical signs / abnormal posture + systemic / in life observation / clinical signs / fur (altered …
[23] = systemic / in life observation / clinical signs / alopecia + systemic / in life observation / clinical signs / urogenital staining
[24] = systemic / clinical chemistry / creatinine / creatinine + systemic / clinical chemistry / urea nitrogen / urea nitrogen + systemic / organ …
[25] = systemic / clinical chemistry / creatinine / creatinine + systemic / clinical chemistry / urea nitrogen / urea nitrogen + systemic / …
[26] = group: developmental, developmental / developmental malformation / bone / absent + developmental / developmental malformation / bone / ossification sites + …
[27] = group: maternal, systemic / in life observation / body weight / body weight gain + systemic / in life observation / mortality / mortality + systemic / organ …
[28] = group: maternal, systemic / organ weight / liver / relative to body weight
[29] = group: parental, systemic / in life observation / mortality / mortality
[30] = group: reproductive, reproductive / reproductive performance / mating / mating + reproductive / offspring survival early / litter size / litter size

Structure (SMILES): Oc1ccc(Cl)cc1Cc1ccccc1 [Clorophene]
- LOAEL (rat [1]; [14]): 1000 mg/kg/day
- NOAEL (rat [1]; [14]): 500 mg/kg/day
- LEL (rat [1]; [15]): 62.5 mg/kg/day
- NEL (rat [1]; [15]): < 62.5 mg/kg/day
- NEL (rat [2]; systemic / in life observation / clinical signs / urogenital staining + systemic / organ weight / heart / absolute + systemic / organ weight…): 240 mg/kg/day
- LOAEL (rat [2]; [16]): 30 mg/kg/day
- NOAEL (rat [2]; [16]): < 30 mg/kg/day
- LEL (rabbit): 5 mg/kg/day
- LOAEL (rabbit): 5 mg/kg/day
- NEL (rabbit): 1 mg/kg/day
- NOAEL (rabbit): 1 mg/kg/day
- LEL (rat [3]; [17]): 1000 mg/kg/day
- LOAEL (rat [3]; [17]): > 1000 mg/kg/day
- NEL (rat [3]; [17]): 300 mg/kg/day
- NOAEL (rat [3]; [17]): ≥ 1000 mg/kg/day
- LOAEL (rat [3]; [18]): > 1000 mg/kg/day
- NEL (rat [3]; [18]): 100 mg/kg/day
- NOAEL (rat [3]; [18]): ≥ 1000 mg/kg/day
- LEL (rat [3]; group: maternal, systemic / in life observation / body weight / body weight + systemic / in life observation / water consumption / water consumption): 300 mg/kg/day
- LEL (rat [4]; [19]): 375 mg/kg/day
- LOAEL (rat [4]; [19]): 375 mg/kg/day
- NEL (rat [4]; [19]): 75 mg/kg/day
- NOAEL (rat [4]; [19]): 75 mg/kg/day
- LEL (rat [4]; [20]): 75 mg/kg/day
- LOAEL (rat [4]; [20]): 75 mg/kg/day
- NEL (rat [4]; [21]): 15 mg/kg/day
- NOAEL (rat [4]; [21]): 15 mg/kg/day
- LEL (mouse [5]): 120 mg/kg/day
- LOAEL (mouse [5]): 120 mg/kg/day
- NEL (mouse [5]): < 120 mg/kg/day
- NOAEL (mouse [5]): < 120 mg/kg/day
- LOAEL (mouse [6]; [22]): > 1000 mg/kg/day
- NEL (mouse [6]; [22]): 62.5 mg/kg/day
- NOAEL (mouse [6]; [22]): ≥ 1000 mg/kg/day
- LEL (mouse [6]; [15]): 125 mg/kg/day
- LEL (rat [7]; [23]): 30 mg/kg/day
- NEL (rat [7]; [23]): < 30 mg/kg/day
- LOAEL (rat [7]; [14]): 480 mg/kg/day
- NOAEL (rat [7]; [14]): 240 mg/kg/day
- LOAEL (rat [8]; [24]): 240 mg/kg/day
- NOAEL (rat [8]; [24]): 120 mg/kg/day
- LEL (rat [8]; [25]): 30 mg/kg/day
- NEL (rat [8]; [25]): < 30 mg/kg/day

Structure (SMILES): ClC1=C(Cl)[C@]2(Cl)[C@@H]3[C@H]4C[C@H]([C@@H]5O[C@H]45)[C@@H]3[C@@]1(Cl)C2(Cl)Cl [Endrin]
- LEL (rat [9]): 0.3 mg/kg/day
- LOAEL (rat [9]): > 0.45 mg/kg/day
- NEL (rat [9]): 0.15 mg/kg/day
- NOAEL (rat [9]): ≥ 0.45 mg/kg/day
- LEL (mouse [10]): 0.24 mg/kg/day
- LOAEL (mouse [10]): > 0.48 mg/kg/day
- NEL (mouse [10]): < 0.24 mg/kg/day
- NOAEL (mouse [10]): ≥ 0.48 mg/kg/day
- LEL (rat [11]): 0.125 mg/kg/day
- LOAEL (rat [11]): > 0.25 mg/kg/day
- NEL (rat [11]): < 0.125 mg/kg/day
- NOAEL (rat [11]): ≥ 0.25 mg/kg/day
- LEL (mouse [12]; [26]): 1 mg/kg/day
- LOAEL (mouse [12]; [26]): > 2 mg/kg/day
- NEL (mouse [12]; [26]): 0.5 mg/kg/day
- NOAEL (mouse [12]; [26]): ≥ 2 mg/kg/day
- LOAEL (mouse [12]; [27]): > 2 mg/kg/day
- NOAEL (mouse [12]; [27]): ≥ 2 mg/kg/day
- LEL (mouse [12]; [28]): 0.5 mg/kg/day
- NEL (mouse [12]; [28]): < 0.5 mg/kg/day
- LEL (hamster): 1.5 mg/kg/day
- LOAEL (hamster): > 1.5 mg/kg/day
- NOAEL (hamster): ≥ 1.5 mg/kg/day
- LEL (mouse [13]; [29]): 0.75 mg/kg/day
- LOAEL (mouse [13]; [29]): > 0.75 mg/kg/day
- NEL (mouse [13]; [29]): < 0.75 mg/kg/day
- NOAEL (mouse [13]; [29]): ≥ 0.75 mg/kg/day
- LEL (mouse [13]; [30]): 0.75 mg/kg/day
- LOAEL (mouse [13]; [30]): > 0.75 mg/kg/day
- NEL (mouse [13]; [30]): < 0.75 mg/kg/day
- NOAEL (mouse [13]; [30]): ≥ 0.75 mg/kg/day
